From patent publication US12662490B2, “Heterocyclic compounds” (Hoffmann-La Roche Inc., priority 2019, dated 2026) come the findings set out here.

As a reminder, the IC50 is the concentration that inhibits the measured activity by half. A low value points to greater potency in that assay.

Each structure is given as a SMILES string.

The target in this test is T1, MAGL (Homo sapiens, UniProt Q99685).
T1 sequence (Q99685 1-303): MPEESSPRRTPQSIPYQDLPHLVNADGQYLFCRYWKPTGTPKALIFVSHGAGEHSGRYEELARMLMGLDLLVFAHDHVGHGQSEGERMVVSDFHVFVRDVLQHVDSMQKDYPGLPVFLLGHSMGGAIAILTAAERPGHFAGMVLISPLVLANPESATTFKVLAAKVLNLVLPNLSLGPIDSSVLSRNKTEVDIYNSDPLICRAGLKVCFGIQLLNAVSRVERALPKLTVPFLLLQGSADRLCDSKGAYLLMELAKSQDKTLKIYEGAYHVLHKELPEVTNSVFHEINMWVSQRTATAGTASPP
Put plainly: 2-AG assay (MAGL inhibitory activity; hydrolysis of 2-arachidonoylglycerol to arachidonic acid followed by mass spectrometry). Type of test: biochemical. The settings on record: 15 min preincubation at RT, 8 μM 2-arachidonoylglycerol, 30 min at RT, RapidFire MS readout. Summed up:
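Compounds (final 12.5 μM to […], 3-fold steps) preincubated 15 min at RT with MAGL ([…]) in 50 mM TRIS, 1 mM EDTA, Tween buffer. Reaction started with 8 μM 2-arachidonoylglycerol, run 30 min at RT, quenched with ACN containing d8-arachidonic acid. Arachidonic acid quantified by RapidFire SPE-triple quadrupole MS (negative ESI), activity from arachidonic acid/d8 ratio.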
As to `O=C(c1cccc(N2CC(O)C2)c1Cl)N1CCN2C[C@@H](c3ccc(F)c(Cl)c3)OC[C@@H]2C1` [Example 108, [(3R,9aS)-3-(3-chloro-4-fluoro-phenyl)-3,4,6,7,9,9a-hexahydro-1H-pyrazino[2,1-c][1,4]oxazin-8-yl]-[2-chloro-3-(3-hydroxyazetidin-1-yl)phenyl]methanone], 10.5 nM corresponded to half-maximal inhibition (IC50).

Compound `N#Cc1cc(-c2cccc(C(=O)N3CCN4C[C@@](O)(c5ccc(F)c(Cl)c5)OC[C@@H]4C3)c2Cl)c[nH]1` [Example 109, 4-[3-[(3R,9aS)-3-(3-chloro-4-fluoro-phenyl)-3-hydroxy-1,4,6,7,9,9a-hexahydropyrazino[2,1-c][1,4]oxazine-8-carbonyl]-2-chloro-phenyl]-1H-pyrrole-2-carbonitrile] had an IC50 of 1.6 nM. As to `COc1cccc(C(=O)N2CCN3C[C@@H](c4ccc(Br)c(Cl)c4)OC[C@@H]3C2)c1Cl` [Example 110, [(3R,9aS)-3-(4-bromo-3-chloro-phenyl)-3,4,6,7,9,9a-hexahydro-1H-pyrazino[2,1-c][1,4]oxazin-8-yl]-(2-chloro-3-methoxy-phenyl)methanone], half-maximal inhibition (IC50) was put at 5 nM. Under `COc1ccc(F)c(C(=O)N2CCN3C[C@@H](c4ccc(F)c(Cl)c4)OC[C@@H]3C2)c1Cl` [Example 111, [(3R,9aS)-3-(3-chloro-4-fluoro-phenyl)-3,4,6,7,9,9a-hexahydro-1H-pyrazino[2,1-c][1,4]oxazin-8-yl]-(2-chloro-6-fluoro-3-methoxy-phenyl)methanone] stands 5.8 nM; under `N#Cc1cc(-c2cc(F)cc(C(=O)N3CCN4C[C@@H](c5ccc(C(F)(F)F)[nH]c5=O)OC[C@@H]4C3)c2Cl)c[nH]1` [Example 112, 4-[3-[(3R,9aS)-3-[2-oxo-6-(trifluoromethyl)-1H-pyridin-3-yl]-3,4,6,7,9,9a-hexahydro-1H-pyrazino[2,1-c][1,4]oxazine-8-carbonyl]-2-chloro-5-fluoro-phenyl]-1H-pyrrole-2-carbonitrile], 6.5 nM. `N#Cc1cc(-c2cccc(C(=O)N3CCN4C[C@@](O)(c5ccc(F)c(F)c5)OC[C@@H]4C3)c2Cl)c[nH]1` [Example 113, 4-[3-[(3R,9aS)-3-(3,4-difluorophenyl)-3-hydroxy-1,4,6,7,9,9a-hexahydropyrazino[2,1-c][1,4]oxazine-8-carbonyl]-2-chloro-phenyl]-1H-pyrrole-2-carbonitrile] came in with an IC50 of 7.6 nM. For `O=C(c1cc(F)cc(-c2cc[nH]c(=O)c2)c1Cl)N1CCN2C[C@@H](c3ccc(F)c(Cl)c3)OC[C@@H]2C1` [Example 114, 4-[3-[(3R,9aS)-3-(3-chloro-4-fluoro-phenyl)-3,4,6,7,9,9a-hexahydro-1H-pyrazino[2,1-c][1,4]oxazine-8-carbonyl]-2-chloro-5-fluoro-phenyl]-1H-pyridin-2-one], half-maximal inhibition (IC50) was put at 10.8 nM. Compound `N#Cc1cc(-c2cc(F)cc(C(=O)N3CCN4C[C@@H](c5cc(Cl)c[nH]c5=O)OC[C@@H]4C3)c2Cl)c[nH]1` [Example 115, 4-[3-[(3R,9aS)-3-(5-chloro-2-oxo-1H-pyridin-3-yl)-3,4,6,7,9,9a-hexahydro-1H-pyrazino[2,1-c][1,4]oxazine-8-carbonyl]-2-chloro-5-fluoro-phenyl]-1H-pyrrole-2-carbonitrile] had an IC50 of 13.5 nM. Next, `COc1ccc(F)c(C(=O)N2CCN3C[C@@](O)(c4ccc(F)c(Cl)c4)OC[C@@H]3C2)c1Cl` [Example 116, [(3R,9aS)-3-(3-chloro-4-fluoro-phenyl)-3-hydroxy-1,4,6,7,9,9a-hexahydropyrazino[2,1-c][1,4]oxazin-8-yl]-(2-chloro-6-fluoro-3-methoxy-phenyl)methanone]: 15.9 nM; `N#Cc1cc(-c2cccc(C(=O)N3CCN4C[C@@H](c5cc(Cl)c[nH]c5=O)OC[C@@H]4C3)c2Cl)c[nH]1` [Example 117, 4-[3-[(3R,9aS)-3-(5-chloro-2-oxo-1H-pyridin-3-yl)-3,4,6,7,9,9a-hexahydro-1H-pyrazino[2,1-c][1,4]oxazine-8-carbonyl]-2-chloro-phenyl]-1H-pyrrole-2-carbonitrile]: 17.4 nM. In turn, `O=C(c1cccc(-c2c[nH]c(=O)o2)c1Cl)N1CCN2C[C@@H](c3ccc(Cl)c(Cl)c3)OC[C@@H]2C1` [Example 118, 5-[3-[(3R,9aS)-3-(3,4-dichlorophenyl)-3,4,6,7,9,9a-hexahydro-1H-pyrazino[2,1-c][1,4]oxazine-8-carbonyl]-2-chloro-phenyl]-3H-oxazol-2-one] gave an IC50 of 33.1 nM.

As for `COc1cccc(C(=O)N2CCN3C[C@@](O)(c4ccc(C(F)(F)F)cc4)OC[C@@H]3C2)c1Cl` [Example 119, [(3R,9aS)-3-hydroxy-3-[4-(trifluoromethyl)phenyl]-1,4,6,7,9,9a-hexahydropyrazino[2,1-c][1,4]oxazin-8-yl]-(2-chloro-3-methoxy-phenyl)methanone], the IC50 was found to be 34.7 nM. On to `COc1cccc(C(=O)N2CCN3C[C@@](O)(c4ccc(Cl)c(F)c4)OC[C@@H]3C2)c1Cl` [Example 120, [(3R,9aS)-3-(4-chloro-3-fluoro-phenyl)-3-hydroxy-1,4,6,7,9,9a-hexahydropyrazino[2,1-c][1,4]oxazin-8-yl]-(2-chloro-3-methoxy-phenyl)methanone], for which it took 42.4 nM to reach half-maximal inhibition (IC50). `O=C(c1cccc(-c2c[nH]c(=O)o2)c1Cl)N1CCN2C[C@@H](c3ccc(F)c(Cl)c3)OC[C@@H]2C1` [Example 121, 5-[3-[(3R,9aS)-3-(3-chloro-4-fluoro-phenyl)-3,4,6,7,9,9a-hexahydro-1H-pyrazino[2,1-c][1,4]oxazine-8-carbonyl]-2-chloro-phenyl]-3H-oxazol-2-one] registered an IC50 of 46.4 nM. `O=C(c1cccc(-c2c[nH]c(=O)o2)c1Cl)N1CCN2C[C@@](O)(c3ccc(Cl)c(Cl)c3)OC[C@@H]2C1` [Example 122, 5-[3-[(3R,9aS)-3-(3,4-dichlorophenyl)-3-hydroxy-1,4,6,7,9,9a-hexahydropyrazino[2,1-c][1,4]oxazine-8-carbonyl]-2-chloro-phenyl]-3H-oxazol-2-one] displayed an IC50 of 48.6 nM. Under `Cc1cc(-c2cccc(C(=O)N3CCN4C[C@@H](c5ccc(F)c(Cl)c5)OC[C@@H]4C3)c2Cl)cc(=O)[nH]1` [Example 123, 4-[3-[(3R,9aS)-3-(3-chloro-4-fluoro-phenyl)-3,4,6,7,9,9a-hexahydro-1H-pyrazino[2,1-c][1,4]oxazine-8-carbonyl]-2-chloro-phenyl]-6-methyl-1H-pyridin-2-one] stands 55.7 nM; under `Cc1[nH]c(=O)ccc1-c1cccc(C(=O)N2CCN3C[C@@H](c4ccc(F)c(Cl)c4)OC[C@@H]3C2)c1Cl` [Example 124, 5-[3-[(3R,9aS)-3-(3-chloro-4-fluoro-phenyl)-3,4,6,7,9,9a-hexahydro-1H-pyrazino[2,1-c][1,4]oxazine-8-carbonyl]-2-chloro-phenyl]-6-methyl-1H-pyridin-2-one], 57.6 nM. Take `COc1cccc(C(=O)N2CCN3C[C@@](O)(c4cc(Cl)cc(Br)c4)OC[C@@H]3C2)c1Cl` [Example 125, [(3R,9aS)-3-(3-bromo-5-chloro-phenyl)-3-hydroxy-1,4,6,7,9,9a-hexahydropyrazino[2,1-c][1,4]oxazin-8-yl]-(2-chloro-3-methoxy-phenyl)methanone]: the concentration for half-maximal inhibition (IC50) was determined as 82.8 nM. For the compound `O=C1CN(c2cccc(C(=O)N3CCN4C[C@@H](c5ccc(F)c(Cl)c5)OC[C@@H]4C3)c2Cl)CCN1` [Example 126, 4-[3-[(3R,9aS)-3-(3-chloro-4-fluoro-phenyl)-3,4,6,7,9,9a-hexahydro-1H-pyrazino[2,1-c][1,4]oxazine-8-carbonyl]-2-chloro-phenyl]piperazin-2-one], the midpoint of inhibition, the IC50, lay at 96.2 nM. For `O=C(c1cccc(-c2cnsc2)c1Cl)N1CCN2C[C@@](O)(c3ccc(F)c(Cl)c3)OC[C@@H]2C1` [Example 127, [(3R,9aS)-3-(3-chloro-4-fluoro-phenyl)-3-hydroxy-1,4,6,7,9,9a-hexahydropyrazino[2,1-c][1,4]oxazin-8-yl]-(2-chloro-3-isothiazol-4-yl-phenyl)methanone], the half-maximal inhibitory concentration (IC50) was 97.7 nM. With `COc1cccc(C(=O)N2CCN3C[C@@H](c4cc(F)c(F)cc4F)OC[C@@H]3C2)c1Cl` [Example 128, [(3R,9aS)-3-(2,4,5-trifluorophenyl)-3,4,6,7,9,9a-hexahydro-1H-pyrazino[2,1-c][1,4]oxazin-8-yl]-(2-chloro-3-methoxy-phenyl)methanone], inhibition was half-maximal at 103 nM (IC50). Take `COc1cccc(C(=O)N2CCN3C[C@@](O)(c4ccc(Cl)cc4Cl)OC[C@@H]3C2)c1Cl` [Example 129, [(3R,9aS)-3-(2,4-dichlorophenyl)-3-hydroxy-1,4,6,7,9,9a-hexahydropyrazino[2,1-c][1,4]oxazin-8-yl]-(2-chloro-3-methoxy-phenyl)methanone]: the 50% inhibitory concentration (IC50) came to 113 nM. In the case of `COc1cccc(C(=O)N2CCN3C[C@@](O)(c4ccc(F)c(F)c4F)OC[C@@H]3C2)c1Cl` [Example 130, [(3R,9aS)-3-hydroxy-3-(2,3,4-trifluorophenyl)-1,4,6,7,9,9a-hexahydropyrazino[2,1-c][1,4]oxazin-8-yl]-(2-chloro-3-methoxy-phenyl)methanone], half-maximal inhibition (IC50) required 117 nM. Consider `COc1cccc(C(=O)N2CCN3C[C@@](O)(c4cc(Br)c(OC)s4)OC[C@@H]3C2)c1Cl` [Example 131, [(3S,9aS)-3-(4-bromo-5-methoxy-2-thienyl)-3-hydroxy-1,4,6,7,9,9a-hexahydropyrazino[2,1-c][1,4]oxazin-8-yl]-(2-chloro-3-methoxy-phenyl)methanone], for which the IC50 worked out at 118 nM.
